pIC50: −log10 of the molar value.
How the values were obtained:
NF-kB = NF-kB reporter assay in Jurkat cells stimulated with aCD3/aCD28/PMA; format: cell-based; settings: Homo sapiens, Jurkat, Jurkat cells, 1 hr compound incubation, aCD3/aCD28/PMA stimulation 4 hr, One-Glo readout; read-out: NF-kB Reporter Assay IC50
Description: Jurkat cells were maintained in complete RPMI 1640 media supplemented with 10% FBS. Prior to the assay, 120 nL of the serial diluted compound was added in each well of 384-well flat bottom white plate (Corning #3570) by using liquid handler Echo550. Jurkat cells were harvested by centrifugation at 120 g for 10 min and resuspended in fresh RPMI 1640 media without serum. 30 μL of cells (25,000 cells) were seeded in each well of 384-well plate containing compound. After 1 hr incubation at 37° C. in a 5% CO2 incubator, 10 μL of diluted aCD3/aCD28/PMA (final concentration at 5 μg/mL, 5 μg/mL and 0.03 μg/mL, respectively) in RPMI 1640 without serum were added to each well. After incubation at 37° C. in 5% CO2 for 4 hr, 30 μL of One-Glo reagent (Promega #E6120) was added into each well. The plate was left at room temperature for 5 min and the signal was measured on EnVision (PerkinElmer).
Compounds in which an IC50 was not measured are designated as “N/A”.

MALT1 = biological target: T1, MALT1 (Homo sapiens, UniProt Q9UDY8); assay: MALT-1 Fluorogenic Peptide Cleavage Assay (MALT1 inhibition assay); format: biochemical; settings: Avi-tagged FL MALT-1, Ac-LRSR-AMC peptide substrate, 30 min pre-incubation, 90 min reaction
T1 construct: Avi-tagged FL MALT-1 (Pharmaron, stored at −70° C.); Avi tag
T1 sequence (Q9UDY8 1-824): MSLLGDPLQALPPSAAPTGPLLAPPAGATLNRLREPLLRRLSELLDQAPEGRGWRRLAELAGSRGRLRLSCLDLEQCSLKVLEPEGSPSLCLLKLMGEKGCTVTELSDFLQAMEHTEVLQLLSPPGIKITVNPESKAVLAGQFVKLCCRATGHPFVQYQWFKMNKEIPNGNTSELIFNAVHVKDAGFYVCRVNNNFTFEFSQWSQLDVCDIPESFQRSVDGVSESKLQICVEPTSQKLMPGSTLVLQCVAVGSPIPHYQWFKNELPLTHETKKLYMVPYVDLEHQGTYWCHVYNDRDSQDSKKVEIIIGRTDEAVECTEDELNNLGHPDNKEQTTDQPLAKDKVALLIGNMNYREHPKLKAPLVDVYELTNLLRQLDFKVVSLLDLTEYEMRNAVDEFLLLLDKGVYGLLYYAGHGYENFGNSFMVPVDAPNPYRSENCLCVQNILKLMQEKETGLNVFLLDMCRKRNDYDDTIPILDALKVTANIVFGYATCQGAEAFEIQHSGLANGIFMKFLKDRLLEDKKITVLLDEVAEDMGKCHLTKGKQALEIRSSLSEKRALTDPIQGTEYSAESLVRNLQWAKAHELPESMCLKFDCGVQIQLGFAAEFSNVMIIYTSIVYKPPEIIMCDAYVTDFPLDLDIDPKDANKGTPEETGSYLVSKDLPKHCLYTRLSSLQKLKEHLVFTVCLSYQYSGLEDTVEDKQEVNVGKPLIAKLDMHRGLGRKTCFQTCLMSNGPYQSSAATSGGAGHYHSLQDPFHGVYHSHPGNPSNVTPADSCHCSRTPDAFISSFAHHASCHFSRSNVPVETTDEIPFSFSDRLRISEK
Description: Inhibition of MALT1 activity by the presence of small molecules was evaluated using MALT-1 Fluorogenic Peptide Cleavage Assay. The assay utilizes a quenched AMC-labelled peptide that contains the MALT-1 recognition sequence and cleavage site (LRSR). MALT-1 mediated cleavage of the peptide relieves the quenching and leads to an increase in fluorescence at excitation (342 nm) and emission (441 nm). The following reagents were obtained commercially and used to prepare standard reagent formulations as further described below: […] The standard reagent formulations used in this assay were prepared and stored as follows. A 1.1 M solution of sodium citrate (161.3 g, 500 mL) was prepared and stored at room temperature. A 10% (w/v) CHAPS solution (2.0 g, 20 mL) was prepared and stored at 4° C. A 500 mM HEPES solution having pH of 6.89 was prepared from 200 mL of a 1 M HEPES solution having a pH of 7.5 using concentrated hydrochloric acid and brought to a final volume of 400 mL with […]® H2O. The substrate, 10 mM Ac-LRSR-AMC Peptide, was prepared (10 mg, 1.370 mL DMSO) and stored at -20° C. Compounds were plated to provide a 2% DMSO final concentration using a ProxiPlate-384 Plus F Black 384-shallow well microplate. The assay-ready plates were equilibrated to room temperature. […] DMSO was added only when compound plates had not been DMSO-backfilled to 2%. MALT-1 was thawed and kept on ice. Peptide substrate was thawed on the bench under ambient conditions. A MALT-1 enzyme working stock was prepared from Avi-tagged FL MALT-1 (40 nM in a prepared reagent volume of 16.5 μL) and the reaction buffer (13.0 mL). MALT1 working stock (5 μL) was added to each well of the microplate. MALT-1 was pre-incubated with compounds for 30 minutes at room temperature. […] The plates were covered and incubated on the bench at room temperature for 90 minutes. Fluorescence intensity was determined using a CLARIOstar microplate reader (BMG LABTECH) using the optimised AMC mode. Before taking readings, a 70% gain was applied on the neutral control well. Compound data were normalised to % Inhibition and used to plot sigmoidal concentration response curves to yield various parameters including IC50. […] Compounds in which an IC50 was not measured are designated as “N/A”.

Row | SMILES | pIC50 (NF-kB) | pIC50 (MALT1)
1 | CCc1ccc2cnn(C)c2c1NS(=O)(=O)c1ccc(-c2cc(C(F)(F)F)n[nH]2)nc1 [Example I-1] | > 6.40 | > 6.40
2 | CCc1ccc2cnn(C)c2c1NS(=O)(=O)c1ccc(-n2cc(C(F)(F)F)cn2)nc1 [Example I-2] | > 6.40 | > 6.40
3 | CCc1ccc2cnn(C)c2c1NS(=O)(=O)c1ccc(-n2cc(C(F)(F)F)c(C(=O)N(C)C)n2)nc1 [Example I-4] | – | 6.00 to 6.40
4 | CCc1ccc2cnn(C)c2c1NS(=O)(=O)c1ccc(-n2cc(C(F)(F)F)c(C(=O)N3CC(O)C3)n2)nc1 [Example I-5] | – | > 6.40
5 | CCc1ccc2cnn(C)c2c1N(C)S(=O)(=O)c1ccc(-n2cc(C(F)(F)F)cn2)nc1 [Example I-6] | > 6.40 | > 6.40
6 | CCc1ccc2cnn(C)c2c1NS(=O)(=O)c1ccc(-n2cc(C(F)(F)F)cn2)cn1 [Example I-7, N-(6-Ethyl-1-Methyl-1H-Indazol-7-yl)-5-(4-(Trifluoromethyl)-1H-Pyrazol-1-yl)Pyridine-2-Sulfonamide] | 5.60 to 6.00 | 5.60 to 6.00
7 | CCc1ccc2cnn(C)c2c1NS(=O)(=O)c1cnc(-n2cc(C(F)(F)F)cn2)nc1 [Example I-8, N-(6-Ethyl-1-Methyl-1H-Indazol-7-yl)-2-(4-(Trifluoromethyl)-1H-Pyrazol-1-yl)Pyrimidine-5-Sulfonamide] | < 5.60 | < 5.60
8 | CCc1ccc2cnn(C)c2c1NS(=O)(=O)c1ccc(-n2cc(C(F)(F)F)cn2)nn1 [Example I-9, N-(6-Ethyl-1-Methyl-1H-Indazol-7-yl)-6-(4-(Trifluoromethyl)-1H-Pyrazol-1-yl)Pyridazine-3-Sulfonamide] | < 5.60 | < 5.60
9 | COc1ccc2cnn(C)c2c1NS(=O)(=O)c1ccc(-n2cc(C(F)(F)F)cn2)nc1 [Example I-10, N-(6-Methoxy-1-Methylindazol-7-yl)-6-[4-(Trifluoromethyl) Pyrazol-1-yl]pyridine-3-Sulfonamide] | > 6.40 | > 6.40
10 | COc1ccc2cnn(C)c2c1NS(=O)(=O)c1ccc(-n2cc(C3CC3)cn2)nc1 [Example I-11, 6-(4-Cyclopropyl-1H-Pyrazol-1-yl)-N-(6-Methoxy-1-Methyl-1H-Indazol-7-yl)Pyridine-3-Sulfonamide] | > 6.40 | > 6.40
11 | COc1ccc2cnn(C)c2c1NS(=O)(=O)c1ccc(-n2cc(Cl)cn2)nc1 [Example I-13, 6-(4-Chloro-1H-Pyrazol-1-yl)-N-(6-Methoxy-1-Methyl-1H-Indazol-7-yl)Pyridine-3-Sulfonamide] | > 6.40 | > 6.40
12 | COc1ccc2cnn(C)c2c1NS(=O)(=O)c1ccc(-n2cc(C)cn2)nc1 [Example I-14, N-(6-Methoxy-1-Methyl-1H-Indazol-7-yl)-6-(4-Methyl-1H-Pyrazol-1-yl)Pyridine-3-Sulfonamide] | > 6.40 | > 6.40
13 | COc1ccc2cnn(C)c2c1NS(=O)(=O)c1ccc(-n2cccn2)nc1 [Example I-15, N-(6-Methoxy-1-Methyl-1H-Indazol-7-yl)-6-(1H-Pyrazol-1-yl) Pyridine-3-Sulfonamide] | > 6.40 | 5.60 to 6.00
14 | COc1ccc2cnn(C)c2c1NS(=O)(=O)c1ccc(-n2ccc(C(F)(F)F)n2)nc1 [Example I-16] | > 6.40 | > 6.40
15 | Cn1ncc2ccc(C3CC3)c(NS(=O)(=O)c3ccc(-n4cc(Cl)cn4)nc3)c21 [Example I-17] | > 6.40 | > 6.40
16 | COc1ccc2cnn(C)c2c1NS(=O)(=O)c1ccc(-c2cc(C(F)(F)F)nn2C)nc1 [Example I-18, N-(6-Methoxy-1-Methylindazol-7-yl)-6-[2-Methyl-5-(Trifluoromethyl)Pyrazol-3-yl]pyridine-3-Sulfonamide] | > 6.40 | > 6.40
17 | COc1ccc2cnn(C)c2c1NS(=O)(=O)c1ccc(-c2ccn(C)n2)nc1 [Example I-19, N-(6-Methoxy-1-Methylindazol-7-yl)-6-(1-Methylpyrazol-3-yl)Pyridine-3-Sulfonamide] | > 6.40 | < 5.60
18 | COc1ccc2cnn(C)c2c1NS(=O)(=O)c1ccc(-c2cnn(C)c2)nc1 [Example I-20, N-(6-Methoxy-1-Methylindazol-7-yl)-6-(1-Methylpyrazol-4-yl)Pyridine-3-Sulfonamide] | 6.00 to 6.40 | 5.60 to 6.00
19 | COc1ccc2cnn(C)c2c1NS(=O)(=O)c1ccc(-c2cn(C)nn2)nc1 [Example I-21, N-(6-Methoxy-1-Methyl-1H-Indazol-7-yl)-6-(1-Methyl-1H-1,2,3-Triazol-4-yl)Pyridine-3-Sulfonamide] | > 6.40 | < 5.60
20 | COc1ccc2cnn(C)c2c1NS(=O)(=O)c1ccc(-c2cc(C(F)(F)F)n[nH]2)nc1 [Example I-22, N-(6-Methoxy-1-Methylindazol-7-yl)-6-[5-(Trifluoromethyl)-2H-Pyrazol-3-yl]pyridine-3-Sulfonamide] | > 6.40 | > 6.40
21 | Cn1ncc2cccc(NS(=O)(=O)c3ccc(-n4cc(C(F)(F)F)cn4)nc3)c21 [Example I-23, N-(1-Methyl-1H-Indazol-7-yl)-6-(4-(Trifluoromethyl)-1H-Pyrazol-1-yl)Pyridine-3-Sulfonamide] | > 6.40 | 6.00 to 6.40
22 | Cc1n[nH]c2cccc(NS(=O)(=O)c3ccc(-n4cc(C(F)(F)F)cn4)nc3)c12 [Example I-24, N-(3-Methyl-1H-Indazol-4-yl)-6-(4-(Trifluoromethyl)-1H-Pyrazol-1-yl)Pyridine-3-Sulfonamide] | > 6.40 | 5.60 to 6.00
23 | CCc1ccc2cnn(C)c2c1NS(=O)(=O)c1ccc(-c2ccc(C(=O)OC)c(Cl)c2)nc1 [Example I-45, Methyl 2-Chloro-4-(5-(N-(6-Ethyl-1-Methyl-1H-Indazol-7-yl)Sulfamoyl)Pyridin-2-yl)Benzoate] | – | > 6.40
24 | CCc1ccc2cnn(C)c2c1NS(=O)(=O)c1ccc(-c2ccnc(C(F)(F)F)c2)nc1 [Example I-46, N-(6-Ethyl-1-Methyl-1H-Indazol-7-yl)-2′-(Trifluoromethyl)-[2,4′-Bipyridine]-5-Sulfonamide] | – | > 6.40
25 | CCc1ccc2cnn(C)c2c1NS(=O)(=O)c1ccc(-c2ccncc2)nc1 [Example I-47, N-(6-Ethyl-1-Methyl-1H-Indazol-7-yl)-[2,4′-Bipyridine]-5-Sulfonamide] | – | 5.60 to 6.00
